± gives the standard deviation of the averaged measurements.
Assays:
DOXORUBICIN = compound: COc1cccc2c1C(=O)c1c(O)c3c(c(O)c1C2=O)C[C@@](O)(C(=O)CO)C[C@@H]3O[C@H]1C[C@H](N)[C@H](O)[C@H](C)O1 [DOXORUBICIN]; test: surviving fraction relative to DMSO-only wells; higher = less growth inhibition; details: exposure time: 5 days
In short: (§1)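 Viability values are CellTiter-Glo luminescence readings, given as surviving fraction against the median of DMSO-only wells. The readings were taken after 10 minutes at room temperature, following five days of continuous exposure to inhibitors at 0.5, 1, 5, 10, 50, 100, 500 and 1000 nM that began 24 hours after log-phase tumour cell lines were seeded at 250–500 cells per well in 384-well plates. Every line was screened three times and kept only if replicate Pearson r >0.7 and median Z' >0.3.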

FLUOROURACIL = compound: O=c1[nH]cc(F)c(=O)[nH]1 [FLUOROURACIL]; test: as above; details: exposure time: 5 days
In short: as §1

Test System	surviving fraction (DOXORUBICIN; 0.5 nM)	surviving fraction (DOXORUBICIN; 1 nM)	surviving fraction (DOXORUBICIN; 5 nM)	surviving fraction (DOXORUBICIN; 10 nM)	surviving fraction (DOXORUBICIN; 50 nM)	surviving fraction (DOXORUBICIN; 100 nM)	surviving fraction (DOXORUBICIN; 500 nM)	surviving fraction (DOXORUBICIN; 1000 nM)	surviving fraction (FLUOROURACIL; 0.5 nM)	surviving fraction (FLUOROURACIL; 1 nM)	surviving fraction (FLUOROURACIL; 5 nM)	surviving fraction (FLUOROURACIL; 10 nM)	surviving fraction (FLUOROURACIL; 50 nM)	surviving fraction (FLUOROURACIL; 100 nM)	surviving fraction (FLUOROURACIL; 500 nM)	surviving fraction (FLUOROURACIL; 1000 nM)
SG27 HEADNECK	0.988 ± 0.057	0.967 ± 0.037	1.09 ± 0.094	1.04 ± 0.059	0.949 ± 0.038	0.867 ± 0.081	0.097 ± 0.014	0.0447 ± 0.019	1.07 ± 0.029	1.08 ± 0.13	0.991 ± 0.016	1.08 ± 0.053	1.08 ± 0.087	1 ± 0.13	1.137 ± 0.0093	1.01 ± 0.043
SG28 HEADNECK	1.11 ± 0.12	1.11 ± 0.083	0.976 ± 0.081	1.03 ± 0.011	0.851 ± 0.13	0.609 ± 0.014	0.0457 ± 0.0098	0.038 ± 0.0036	1.04 ± 0.056	1.08 ± 0.056	0.944 ± 0.078	1.06 ± 0.036	0.756 ± 0.013	0.756 ± 0.12	0.781 ± 0.059	0.693 ± 0.068
SG31 HEADNECK	1.1 ± 0.095	1.03 ± 0.035	0.818 ± 0.035	0.717 ± 0.11	0.556 ± 0.03	0.495 ± 0.037	0.0787 ± 0.02	0.0363 ± 0.01	1.09 ± 0.14	1.25 ± 0.32	1.05 ± 0.085	0.973 ± 0.11	0.893 ± 0.048	0.981 ± 0.16	0.903 ± 0.059	0.876 ± 0.054
SG32 HEADNECK	1.19 ± 0.12	1.07 ± 0.27	0.828 ± 0.14	0.563 ± 0.099	0.414 ± 0.04	0.194 ± 0.019	0.04 ± 0.017	0.0313 ± 0.0081	1.28 ± 0.12	0.974 ± 0.046	1.21 ± 0.34	0.932 ± 0.029	0.864 ± 0.056	0.716 ± 0.098	0.8 ± 0.095	0.442 ± 0.096
SG43 HEADNECK	0.854 ± 0.15	0.776 ± 0.14	0.802 ± 0.076	0.675 ± 0.16	0.453 ± 0.056	0.322 ± 0.067	0.0633 ± 0.027	0.048 ± 0.024	1.07 ± 0.14	0.991 ± 0.21	0.979 ± 0.25	1.06 ± 0.3	1.1 ± 0.22	0.905 ± 0.073	0.977 ± 0.088	0.879 ± 0.054
SIHA CERVIX	0.996 ± 0.084	0.998 ± 0.08	1.04 ± 0.053	0.9867 ± 0.0011	0.505 ± 0.04	0.481 ± 0.0086	0.0967 ± 0.061	0.0287 ± 0.00058	1.01 ± 0.043	0.989 ± 0.052	1.06 ± 0.011	1.08 ± 0.066	0.999 ± 0.051	0.957 ± 0.073	0.915 ± 0.13	1.02 ± 0.097
SJSA1 BONE	1.02 ± 0.015	0.991 ± 0.027	0.927 ± 0.012	0.636 ± 0.052	0.564 ± 0.014	0.284 ± 0.013	0.0957 ± 0.005	0.0317 ± 0.0021	1.19 ± 0.1	1.6 ± 0.092	1.59 ± 0.11	1.52 ± 0.2	0.135 ± 0.008	0.823 ± 0.018	1.44 ± 0.026	0.116 ± 0.001
SKBR3 BREAST	0.804 ± 0.17	0.871 ± 0.1	0.852 ± 0.049	0.724 ± 0.16	0.375 ± 0.026	0.256 ± 0.0044	0.0547 ± 0.0061	0.0297 ± 0.0032	0.988 ± 0.088	0.894 ± 0.085	1.03 ± 0.074	0.986 ± 0.015	0.792 ± 0.059	0.741 ± 0.11	0.901 ± 0.11	0.787 ± 0.018
SNU475 LIVER	0.958 ± 0.051	0.9777 ± 0.0038	0.982 ± 0.018	0.958 ± 0.059	0.484 ± 0.034	0.392 ± 0.015	0.3 ± 0.032	0.192 ± 0.012	1 ± 0.058	0.982 ± 0.018	0.99 ± 0.046	0.9607 ± 0.0047	0.886 ± 0.021	0.892 ± 0.025	0.826 ± 0.081	0.741 ± 0.066
SUM44 BREAST	0.938 ± 0.054	0.887 ± 0.041	0.987 ± 0.044	0.895 ± 0.022	0.859 ± 0.06	0.811 ± 0.051	0.14 ± 0.021	0.054 ± 0.0027	1.03 ± 0.23	0.958 ± 0.17	1.02 ± 0.16	0.956 ± 0.12	1.05 ± 0.12	0.788 ± 0.041	0.982 ± 0.05	0.726 ± 0.07
